Assay results published in publication PMC4741719, “Acquisition of a single EZH2 D1 domain mutation confers acquired resistance to EZH2-targeted inhibitors” (Oncotarget, 2015).
Read-outs that look alike come from different tables or passages of the source.

What was measured:
[1] = system: DLBCL and rhabdoid INI1-deficient patients; parameters: method as in earlier work; conditions: phase 1 clinical trial, monotherapy; cited from earlier work
[2] = system: Pfeiffer cells stably-expressing Y111D/Y641F EZH2 mutant; test: Viability assay, Pfeiffer cells stably-expressing Y111D/Y641F EZH2
[3] = system: Pfeiffer cells stably-expressing Y111D/A677G EZH2 mutant; test: Viability assay, Pfeiffer cells stably-expressing Y111D/A677G EZH2; conditions: Homo sapiens, read-out: IC50 cell viability
[4] = system: H3K27me3 in Pfeiffer cells (Parental); test: Cellular H3K27me3 AlphaLISA, parental Pfeiffer cells; format: cell-based; conditions: Homo sapiens, Figure 3B
Method: Cells were plated at 500 cells/well in 10% DMEM, 50 uL/well in 384 well plates. […] DMSO (0.1%) was used as a vehicle control. Plates were incubated for 72 hours at 37°C. […] Plates were read using AlphaLISA protocol on Envision (Perkin Elmer).

[5] = system: H3K27me3 in E-200 Pfeiffer cells; test: Cellular H3K27me3 AlphaLISA, E-200 Pfeiffer cells; format: cell-based; conditions: Homo sapiens; Pfeiffer E-200; Figure 3B
Method: Cells were plated at 500 cells/well in 10% DMEM, 50 uL/well in 384 well plates. […] DMSO (0.1%) was used as a vehicle control. Plates were incubated for 72 hours at 37°C. […] Plates were read using AlphaLISA protocol on Envision (Perkin Elmer). […] Pfeiffer cells were treated overnight with 100 μg/mL of N-ethyl-N-nitrosourea (ENU; Sigma Aldrich, St. […] After 7 days, cells were dosed again with fresh compound and grown until outgrowth (3 to 4 weeks). […] Ion semiconductor sequencing (Ion Torrent) and single molecule real time sequencing (PacBio) were performed at Molecular MD and Expression analysis (Quintiles), respectively.

[6] = system: Pfeiffer cells (Parental); test: Viability assay (Cell-Titer-Glo, 6 days), parental Pfeiffer cells; format: cell-based; conditions: Homo sapiens
[7] = system: Pfeiffer cells stably expressing Y111D/A677G/H689A; test: Viability assay, Pfeiffer cells stably expressing Y111D/A677G/H689A EZH2; conditions: Homo sapiens, read-out: IC50 cell viability
E-200 Pfeiffer cells = test: Viability assay, EPZ-6438-resistant E-200 Pfeiffer cells; format: cell-based; conditions: Homo sapiens, read-out: IC50 cell viability
E-100 Pfeiffer cells = test: Viability assay, EPZ-6438-resistant E-100 Pfeiffer cells; format: cell-based; conditions: Homo sapiens, read-out: IC50 cell viability
[8] = system: H3K27me3 in Pfeiffer cells stably-expressing Y111D/A677G EZH2 mutant; test: Cellular H3K27me3 AlphaLISA, Pfeiffer cells stably-expressing Y111D/A677G EZH2; conditions: Homo sapiens, read-out: IC50 H3K27me3

**Q.** Which clinical response [1] does the source give for `CCN(c1cc(-c2ccc(CN3CCOCC3)cc2)cc(C(=O)NCc2c(C)cc(C)[nH]c2=O)c1C)C1CCOCC1` [EPZ-6438] here?
**A.** durable objective responses

**Q.** Which IC50 ([2]; Homo sapiens, Pfeiffer, read-out: IC50 cell viability) does the source give for `CC[C@H](C)n1cc(C)c2c(C(=O)NCc3c(C)cc(C)[nH]c3=O)cc(-c3ccc(N4CCNCC4)nc3)cc21` [GSK126] here?
**A.** 111 ± 35 nM

**Q.** And the “increase in IC50 values” ([2]; Y111D/Y641F, both growth and H3K27 tri-methylation)?
**A.** 3–4 fold

**Q.** What about the IC50 [3] of the same molecule?
**A.** 2670 ± 1370 nM

**Q.** And the IC50 [4]?
**A.** 36 ± 27 nM

**Q.** What about the IC50 [5] of the same molecule?
**A.** > 10000 nM

**Q.** What about the IC50 ([6]; Parental Pfeiffer, Figure 1C, three independent experiments) of the same molecule?
**A.** 23 ± 5 nM

**Q.** And the IC50 ([6]; Pfeiffer Parental, Figure 3C)?
**A.** 33 ± 7 nM

**Q.** What about the IC50 ([6]; Pfeiffer Parental, Figure 4B) of the same molecule?
**A.** 30 ± 5 nM

**Q.** And the IC50 [7]?
**A.** 25 ± 9 nM

**Q.** What about the IC50 (E-200 Pfeiffer cells; E-200, Unwash, Figure 1E) of the same molecule?
**A.** 3150 ± 508 nM

**Q.** And the IC50 (E-200 Pfeiffer cells; E-200, Wash 8 weeks (drug withdrawal), Figure 1E)?
**A.** 2010 ± 1560 nM

**Q.** What about the IC50 (E-200 Pfeiffer cells; E-200 Pfeiffer, Figure 1C) of the same molecule?
**A.** 3980 ± 994 nM

**Q.** What about the IC50 (E-100 Pfeiffer cells; E-100, Unwash, Figure 1E) of the same molecule?
**A.** 4030 ± 370 nM

**Q.** And the IC50 (E-100 Pfeiffer cells; E-100, Wash 8 weeks (drug withdrawal), Figure 1E)?
**A.** 1220 ± 89 nM

**Q.** And the IC50 (E-100 Pfeiffer cells; E-100 Pfeiffer, Figure 1C)?
**A.** 3960 ± 1040 nM

**Q.** What about the IC50 [8] of the same molecule?
**A.** 5000 ± 1590 nM
